The conditions of this assay: room temperature; saturated concentration of target analyte; 20 mM tris buffer.

Experimental: The sensors were all interrogated in 20 mM tris buffer (20 mM trizma base, 100 mM NaCl and 5 mM MgCl2). FIG. 5 illustrates the equilibration of a sensor response with or without the presence of analyte target such as ATP, Tobramycin, or Cocaine.
The aptamers were equilibrated, interrogated, and regenerated in tris buffer at 1° C., 22° C. and 37° C. […] The performance of each E-AB sensor was characterized to determine their expected response in room temperature (RT).
To fabricate the E-AB sensors, the 2 mm diameter gold disk macro electrodes (CH Instruments, Austin, TX) were hand polished for 2 min in a 1 μm diamond slurry (Buehler, Lake Bluff, IL) followed by polishing for 2 min in 0.05 μm alumina oxide slurry (Buehler, Lake Bluff, IL). All electrodes were rinsed with ultrapure water (Milli-Q Ultrapure Water Purification, Millipore, Billerica, MA, U.S.A.). To remove particulates, the electrodes were sonicated in a low power sonicator for 5 min. Next, the electrodes were electrochemically cleaned in various concentrations of sodium hydroxide and sulfuric acid solutions. Sensor fabrication consists of numerous steps of incubation. First, 2 uL of 100 mM TCEP was added to 1 μL of aptamer and left to incubate for 1 h to perform a disulfide bond reaction. […]

Consider cocaine, for which the “percent signal change (increase in current)” value amounted to 56%.

The values above are taken from US20240215873A1, “Aptamer Sensors with Temperature Correction” (University of Cincinnati, priority 2021, published 2024).
